Source: DBAASP
≈ marks a conversion by molar mass, not a printed value.

What was measured:
Assay in all cases: ≥ marks a high value that may be exact or a test limit, other limits are often not marked, values filed in µg/mL are converted to µM
[1] = system: Staphylococcus aureus ATCC 25923
[2] = system: Acinetobacter baumannii NM35
[3] = system: Candida albicans ATCC 90028
[4] = system: Acinetobacter baumannii NM8
[5] = system: Escherichia coli ATCC 25726
[6] = system: Candida albicans NCPF 1467
[7] = system: Staphylococcus aureus NCTC 10788
[8] = system: Staphylococcus aureus ATCC BAA-1556
[9] = system: Micrococcus luteus ATCC 4698
[10] = system: Staphylococcus aureus NCTC 12493
[11] = system: Escherichia coli NCTC 10418
[12] = system: Pseudomonas aeruginosa ATCC 27853
[13] = system: Enterococcus faecalis NCTC 12697
Bacillus cereus = system: Bacillus cereus
Escherichia coli = system: Escherichia coli
Staphylococcus aureus = system: Staphylococcus aureus

## CC[C@H](C)[C@H](NC(=O)CNC(=O)[C@H](CCCCN)NC(=O)[C@@H](NC(=O)[C@H](CC(C)C)NC(=O)[C@H](CO)NC(=O)CNC(=O)[C@H](CC(C)C)NC(=O)CNC(=O)[C@H](CCCCN)NC(=O)[C@H](CCCCN)NC(=O)[C@H](Cc1ccccc1)NC(=O)[C@@H](NC(=O)[C@H](CCCCN)NC(=O)[C@H](CCCCN)NC(=O)[C@H](CC(C)C)NC(=O)CN)[C@@H](C)CC)C(C)C)C(=O)N[C@@H](C)C(=O)N[C@@H](C)C(=O)N[C@@H](Cc1cnc[nH]1)C(=O)N[C@H](C(=O)N[C@@H](C)C(=O)N[C@@H](CO)C(N)=O)C(C)C [GLKKIFKKGLGSLVKGIAAHVAS]
[1]
  MIC: 250 µM (≈ 580 µg/mL)
[2]
  MIC: 2.5 µM (≈ 5.8 µg/mL)
[3]
  MIC: 10 µM (≈ 23.2 µg/mL)
[4]
  MIC: 5 µM (≈ 11.6 µg/mL)
[5]
  MIC: 10 µM (≈ 23.2 µg/mL)

## CC[C@H](C)[C@H](NC(=O)[C@H](C)NC(=O)CNC(=O)[C@@H](NC(=O)[C@@H](N)Cc1ccccc1)C(C)C)C(=O)N[C@@H](C)C(=O)N[C@@H](C)C(=O)N[C@@H](C)C(=O)N[C@@H](CC(C)C)C(=O)N1CCC[C@H]1C(=O)N[C@@H](Cc1cnc[nH]1)C(=O)N[C@H](C(=O)N[C@H](C(=O)N[C@@H](CO)C(=O)N[C@@H](C)C(=O)N[C@H](C(=O)N[C@@H](CCCCN)C(=O)N[C@@H](CC(N)=O)C(=O)N[C@@H](C)C(=O)N[C@@H](CC(C)C)C(=O)O)[C@@H](C)CC)[C@@H](C)CC)C(C)C [FVGAIAAALPHVISAIKNAL]
[6]
  MIC: ≥ 120 µM
[7]
  MIC: 16 µM (≈ 31.6 µg/mL)

## CC(C)C[C@H](NC(=O)[C@H](Cc1c[nH]c2ccccc12)NC(=O)[C@H](Cc1c[nH]c2ccccc12)NC(=O)[C@H](CC(C)C)NC(=O)[C@H](Cc1c[nH]c2ccccc12)NC(=O)[C@H](CCCN=C(N)N)NC(=O)[C@H](CC(C)C)NC(=O)[C@H](Cc1c[nH]c2ccccc12)NC(=O)[C@@H](N)Cc1c[nH]c2ccccc12)C(N)=O [WWLRWLWWL]
[8]
  MIC: 6.25 µM (≈ 9.02 µg/mL)

## CC[C@H](C)[C@H](NC(=O)[C@H](CO)NC(=O)[C@H](CCCCN)NC(=O)[C@@H](N)CO)C(=O)N1CCC[C@H]1C(=O)NCC(=O)N[C@@H](CCCN=C(N)N)C(=O)N[C@@H](CO)C(=O)NCC(=O)O [SKSIPGRSG]
[9]
  MIC: ≥ 75 µM

## CC[C@H](C)[C@H](NC(=O)[C@H](Cc1ccc(O)cc1)NC(=O)[C@H](CC(C)C)NC(=O)[C@@H](N)Cc1ccccc1)C(=O)N[C@H](C(=O)N[C@@H](C)C(=O)N[C@@H](CCCCN)C(=O)N[C@@H](CC(C)C)C(=O)N[C@@H](CC(C)C)C(=O)N[C@@H](CO)C(=O)NCC(=O)N[C@@H](CC(C)C)C(=O)N[C@@H](CC(C)C)C(N)=O)C(C)C [FLYIVAKLLSGLL]
[10]
  MIC: 2 µM (≈ 2.9 µg/mL)
[6]
  MIC: 2 µM (≈ 2.9 µg/mL)
[11]
  MIC: ≥ 512 µM
[12]
  MIC: > 512 µM
[7]
  MIC: 1 µM (≈ 1.45 µg/mL)
[13]
  MIC: 2 µM (≈ 2.9 µg/mL)

## CC[C@H](C)[C@H](NC(=O)[C@H](Cc1ccccc1)NC(=O)[C@H](CCCN=C(N)N)NC(=O)[C@H](CO)NC(=O)[C@@H](NC(=O)[C@H](C)NC(=O)[C@H](C)NC(=O)[C@H](CCCCN)NC(=O)[C@@H](NC(=O)[C@H](CS)NC(=O)[C@@H](NC(=O)[C@@H]1CCCN1C(=O)[C@H](CO)NC(=O)[C@H](Cc1ccc(O)cc1)NC(=O)[C@@H](N)CC(C)C)[C@@H](C)O)C(C)C)C(C)C)C(=O)NCC(=O)N[C@@H](CCCCN)C(=O)N[C@H](C(=O)N[C@@H](CO)C(=O)N[C@@H](C)C(=O)O)C(C)C [LYSPTCVKAAVSRFIGKVSA]
Bacillus cereus
  MIC: ≥ 122 µM
Escherichia coli
  MIC: > 122 µM

## CC[C@H](C)[C@H](NC(=O)[C@H](CC(C)C)NC(=O)[C@H](CCCN=C(N)N)NC(=O)[C@H](CCC(=O)O)NC(=O)[C@H](CC(C)C)NC(=O)[C@@H](NC(=O)[C@@H]1CCCN1C(=O)[C@H](CC(C)C)NC(=O)[C@H](C)NC(=O)[C@H](Cc1ccccc1)NC(=O)[C@H](C)NC(=O)[C@H](C)NC(=O)[C@@H](NC(=O)[C@H](CCCCN)NC(=O)CNC(=O)[C@@H](NC(=O)CNC(=O)[C@@H](NC(=O)[C@H](C)NC(=O)[C@H](C)N)[C@@H](C)O)[C@@H](C)O)[C@@H](C)O)C(C)C)C(=O)O [AATGTGKTAAFALPVLERLI]
Bacillus cereus
  MIC: ≥ 128 µM
Escherichia coli
  MIC: > 128 µM

## CC[C@H](C)[C@H](NC(=O)[C@H](Cc1c[nH]c2ccccc12)NC(=O)[C@H](CCCN=C(N)N)NC(=O)[C@H](CCCN=C(N)N)NC(=O)[C@H](Cc1c[nH]c2ccccc12)NC(=O)[C@@H](N)CCCCN)C(=O)N[C@@H](CCCN=C(N)N)C(=O)N[C@@H](Cc1c[nH]c2ccccc12)C(=O)N[C@@H](C)C(N)=O [KWRRWIRWA]
[8]
  MIC: 12.5 µM (≈ 17 µg/mL)

## CC(C)C[C@H](NC(=O)[C@@H](N)Cc1ccccc1)C(=O)NCC(=O)N[C@@H](CCCCN)C(=O)N[C@H](C(=O)N[C@@H](Cc1ccccc1)C(=O)N[C@@H](CCCCN)C(=O)N[C@@H](CCCCN)C(=O)N[C@H](C(=O)N[C@@H](CO)C(=O)N[C@@H](CCCCN)C(=O)N[C@H](C(=O)N[C@@H](Cc1ccccc1)C(=O)N1CCC[C@H]1C(=O)N[C@@H](C)C(=O)N[C@H](C(=O)N[C@@H](Cc1ccccc1)C(=O)NCC(=O)N[C@@H](CCCCN)C(=O)N[C@H](C(=O)O)C(C)C)C(C)C)C(C)C)C(C)C)C(C)C [FLGKVFKKVSKVFPAVFGKV]
Staphylococcus aureus
  MIC: > 57.5 µM
Bacillus cereus
  MIC: ≥ 57.5 µM
Escherichia coli
  MIC: 14.4 µM (≈ 32 µg/mL)

## CC[C@H](C)[C@H](NC(=O)[C@H](C)NC(=O)[C@H](CCCCN)NC(=O)[C@@H]1CCCN1C(=O)[C@@H](NC(=O)[C@H](CC(C)C)NC(=O)[C@H](CCCCN)NC(=O)[C@H](Cc1ccccc1)NC(=O)[C@H](CC(C)C)NC(=O)[C@@H](N)Cc1ccccc1)[C@@H](C)CC)C(=O)N[C@@H](CCCCN)C(=O)NCC(=O)N[C@@H](CC(C)C)C(=O)N[C@@H](CC(C)C)C(=O)N[C@@H](CCCCN)C(=O)N[C@@H](C)C(=O)N[C@@H](Cc1ccccc1)C(=O)N[C@H](C=O)CCCCN [FLFKLIPKAIKGLLKAFK]
[6]
  MIC: 4 µM (≈ 8.24 µg/mL)
[11]
  MIC: 8 µM (≈ 16.5 µg/mL)
[7]
  MIC: 4 µM (≈ 8.24 µg/mL)

## CC(C)C[C@H](NC(=O)[C@H](CC(C)C)NC(=O)[C@H](CC(C)C)NC(=O)[C@H](CC(C)C)NC(=O)[C@H](CC(C)C)NC(=O)[C@H](CC(C)C)NC(=O)[C@H](CCCCN)NC(=O)[C@H](CC(C)C)NC(=O)[C@@H](N)CCCCN)C(N)=O [KLKLLLLLL]
[8]
  MIC: ≥ 100 µM

## CC[C@H](C)[C@H](NC(=O)CNC(=O)CNC(=O)[C@H](C)NC(=O)[C@@H](NC(=O)[C@H](CCCCN)NC(=O)[C@@H]1CCCN1C(=O)[C@@H](NC(=O)[C@H](CCSC)NC(=O)[C@H](CO)NC(=O)[C@H](CC(C)C)NC(=O)[C@@H](N)Cc1ccccc1)[C@@H](C)CC)[C@@H](C)CC)C(=O)N[C@@H](C)C(=O)N[C@@H](CO)C(=O)N[C@@H](CC(C)C)C(=O)N[C@H](C(=O)N[C@@H](CCCCN)C(=O)N[C@@H](CC(N)=O)C(=O)N[C@@H](CC(C)C)C(N)=O)C(C)C [FLSMIPKIAGGIASLVKNL]
[6]
  MIC: 8.11 µM (≈ 16 µg/mL)
[11]
  MIC: ≥ 64.9 µM
[7]
  MIC: 4.06 µM (≈ 8 µg/mL)
